We go through four compounds from US20150290294A1, “METHODS FOR INHIBITING PLATELET AGGREGATION USING GLP-1 RECEPTOR AGONISTS” (priority 2012, published 2015).

Ends that are not written are not given here.

In one assay the test system is MEG-01 cells. Kind of assay: Intracellular cAMP EIA assay. In kind it is cell-based, human. As to the method: An EIA kit (Cayman Chemicals) was employed to measure intracellular cAMP levels. […] 3-isobutyl-1-methylxanthine (IBMX) was added to each well at a concentration of 0.5 μM and allowed to incubate for 10 min at 37° C. to inhibit phosphodiesterase activity. As a positive control for cAMP generation in MEG-01 cells, PGI2 was added at a concentration of 0.02 ng/ml to control wells and incubated for 10 min at 37° C. PBS was used as a negative control. After incubation, cells were lysed by adding EDTA to a concentration of 10 mM. Lysed cells were transferred to 1.5 ml eppendorf tubes and boiled for 5 min at 95° C. Samples were spun down at 10000 xg for 15 min at 4° C. Supernatant was removed and frozen at −80° C. The cAMP EIA kit assay was then carried out according to manufacturer's instructions.
Given the limited specificity of Abs raised against GPCRs, RT-PCR was performed on RNA from MEG-01 cells with primers designed to yield full-length human GLP-1R cDNA.

In the next assay the test system is platelets. As to conditions: associated with inhibitory effect on intracellular free calcium and tyrosine phosphorylation; cited from earlier work.
Assay [1] has as its system human gel-filtered platelets. Kind of assay: Thrombin-induced platelet aggregation (aggregometer). In kind it is cell-based. As to conditions: for effect on thrombin-induced human platelet aggregation vs PBS control: 100 pM-1 uM (10^-10 to 10^-6 M); for effect on thrombin-induced human platelet aggregation vs PBS control / effect on human platelet aggregation after thrombin stimulation: 15 min 37 °C; for effect on human platelet aggregation after thrombin stimulation: 10 nM each, 0.5 U thrombin. As to the method:
Platelets were then stimulated with thrombin and aggregation was measured using an aggregometer.

For `CCCCC[C@H](O)/C=C/[C@@H]1[C@H]2C/C(=C/CCCC(=O)O)O[C@H]2C[C@H]1O` [PGI2, prostacyclin PGI2, reference compound], the “cAMP response (positive control)” value with MEG-01 cells (PGI2 0.02 ng/ml, 10 min 37 °C) was found to be 16 fold.
As to `N[C@@H](CC(=O)N1CCn2c(nnc2C(F)(F)F)C1)Cc1cc(F)c(F)cc1F` [sitagliptin], the anti-platelet activity entry with platelets is recorded as “exhibited anti-platelet activity”.
On to GLP-1(7-36), for which the “effect on thrombin-induced human platelet aggregation vs PBS control” value in assay [1] (thrombin 0.125 U) was “delayed and reduced”; in assay [1] (thrombin 0.125 U, listed as GLP-1) it was “delayed and reduced platelet aggregation”. Further, the “effect on human platelet aggregation after thrombin stimulation” value in assay [1] is listed as “delayed human platelet aggregation”. Moreover, the “total area under curve of aggregation” value in assay [1] (between 0.1 nM and 100 nM, thrombin 0.125 U, not significant, n=3) was “some inhibition of platelet activity”. In the assay with MEG-01 cells (15 min incubation, 100 pM to 100 nM, n=3), the “intracellular cAMP, qualitative” value is “dose-dependent increase in cAMP”.
As for “GLP-1(9-36) (EGTFTSDVSSYLEGQAAKEFIAWLVKGR-NH2)”, the “effect on human platelet aggregation after thrombin stimulation” value is on record as “delayed human platelet aggregation” in assay [1] and “inhibited human platelet aggregation, but to a lesser extent than GLP-1(7-36)^NH2” in assay [1] (listed as GLP-1(9-36)^NH2).
